Results taken from US20240050577A1, “CDK INHIBITORS AND PHARMACEUTICAL USES THEREOF” (RISEN (SUZHOU) PHARMA TECH CO., LTD., priority 2022, published 2024).

Tested on: OVCAR3 cells
Test: Cell proliferation study (Cell Titer Glo, 72 h)
Format: cell-based
Conditions: Homo sapiens, OVCAR-3, luminescence, read-out: IC50, inhibitory effect on cellular proliferation
Experimental: OVCAR3 (Cobioer, CBP60294) cell line in logarithmic growth phase was used for these experiments. The cell density was adjusted to 1.1×10^4/mL and the cells were inoculated into a 96-well cell culture plate (Corning, 3599), 95 μL per well (the number of cells per well was 1×10^3). The culture plate was placed in an incubator, with 5% carbon dioxide, at 37° C. and incubated overnight. On the next day, a 10 mM stock solution of test compound was prepared in DMSO (Sigma, RNBF5902). After gradient dilution, a series of working solutions with different concentrations of test compound was prepared using complete medium. Working solution was added into the corresponding wells of the orifice plate, and the plate was placed in a 5% carbon dioxide incubator and cultivated at 37° C. for 72 h, and then removed from the incubator. To each well was added 50 μL Cell Tier Glo (Promega, G7573), and the plate was incubated at room temperature for 10 min, followed by luminescence detection with an enzyme marker. The inhibition curve was obtained with GraphPad 7.0 software using four-parameter equation.

| IC50 [nM] | Structure (SMILES) |
| --- | --- |
| 1000 to 5000 | C[C@@]1(O)CCC[C@H]1n1c(=O)ccc2cnc(Nc3ccc(S(=O)(=O)N4CCC5(CCN(C6CN(c7cc8c(cc7F)C(=O)N(C7CCC(=O)NC7=O)C8=O)C6)CC5)CC4)cc3)nc21 (some centres unmarked) [Compound 58] |
| 1000 to 5000 | C[C@@]1(O)CCC[C@H]1n1c(=O)ccc2cnc(Nc3ccc(S(=O)(=O)C4CCN(C5CN(C6CCN(c7cc8c(cc7F)C(=O)N(C7CCC(=O)NC7=O)C8=O)CC6)C5)CC4)cc3)nc21 (some centres unmarked) [Compound 59] |
| 1000 to 5000 | C[C@@]1(O)CCC[C@H]1n1c(=O)ccc2cnc(NC3CCN(S(=O)(=O)N4CCN(CC5CCN(c6cc7c(cc6F)C(=O)N(C6CCC(=O)NC6=O)C7=O)CC5)CC4)CC3)nc21 (some centres unmarked) [Compound 60] |
| 101 to 1000 | C[C@@]1(O)CCC[C@H]1n1c(=O)ccc2cnc(NC3CCN(S(=O)(=O)N4CCN(CC5CCN(c6cc7c(cc6F)C(=O)N(C6CCC(=O)NC6=O)C7=O)C5)CC4)CC3)nc21 (some centres unmarked) [Compound 61] |
| 1000 to 5000 | C[C@@]1(O)CCC[C@H]1n1c(=O)ccc2cnc(NC3CCN(S(=O)(=O)C4CCN(C(=O)CC5CCN(c6cc7c(cc6F)C(=O)N(C6CCC(=O)NC6=O)C7=O)CC5)CC4)CC3)nc21 (some centres unmarked) [Compound 62] |
| 101 to 1000 | Cc1nc2c(F)cc(-c3nc(Nc4ccc(S(=O)(=O)C5CCN(CC6CCN(C7CN(c8cc9c(cc8F)C(=O)N(C8CCC(=O)NC8=O)C9=O)C7)CC6)CC5)cc4)ncc3F)cc2n1C(C)C (centres unmarked) [Compound 65] |
| < 100 | Cc1nc2c(F)cc(-c3nc(Nc4ccc(S(=O)(=O)C5CCN(C6CN(C7CCN(c8cc9c(cc8F)C(=O)N(C8CCC(=O)NC8=O)C9=O)CC7)C6)CC5)cc4)ncc3F)cc2n1C(C)C (centres unmarked) [Compound 66] |
| 101 to 1000 | C[C@@]1(O)CCC[C@H]1n1c(=O)ccc2cnc(NC3CCN(S(=O)(=O)C4CCN(C(=O)C5CCN(c6cc7c(cc6F)C(=O)N(C6CCC(=O)NC6=O)C7=O)CC5)CC4)CC3)nc21 (some centres unmarked) [Compound 67] |
| 101 to 1000 | Cc1nc2c(F)cc(-c3nc(Nc4ccc(S(=O)(=O)N5CCN(CC6CCN(c7ccc8c(c7)C(=O)N(C7CCC(=O)NC7=O)C8=O)CC6)CC5)cc4)ncc3F)cc2n1C(C)C (centres unmarked) [Compound 68] |
| 1000 to 5000 | Cc1nc2c(F)cc(-c3nc(Nc4ccc(S(=O)(=O)NCCOCCOCCNc5cc6c(cc5F)C(=O)N(C5CCC(=O)NC5=O)C6=O)cc4)ncc3F)cc2n1C(C)C (centres unmarked) [Compound 69] |
| 101 to 1000 | Cc1nc2c(F)cc(-c3nc(Nc4ccc(S(=O)(=O)NCCOCCNc5cc6c(cc5F)C(=O)N(C5CCC(=O)NC5=O)C6=O)cc4)ncc3F)cc2n1C(C)C (centres unmarked) [Compound 70] |
| < 100 | Cc1nc2c(F)cc(-c3nc(NC4CCN(S(=O)(=O)C5CCN(CC6CCN(c7cc8c(cc7F)C(=O)N(C7CCC(=O)NC7=O)C8=O)CC6)CC5)CC4)ncc3F)cc2n1C(C)C (centres unmarked) [Compound 71] |
| > 10000 | CC(C)N1CCOc2c(F)cc(-c3nc(Nc4ccc(S(=O)(=O)N5CCN(C6CC7(CCN(c8cccc9c8C(=O)N(C8CCC(=O)NC8=O)C9=O)CC7)C6)CC5)cc4)ncc3F)cc21 (centres unmarked) [Compound 72] |
| > 10000 | CC(C)N1CCOc2c(F)cc(-c3nc(Nc4ccc(S(=O)(=O)N5CCC(NC(=O)C6CCN(c7cccc8c7C(=O)N(C7CCC(=O)NC7=O)C8=O)CC6)CC5)cc4)ncc3F)cc21 (centres unmarked) [Compound 73] |
| 1000 to 5000 | Cc1nc2c(F)cc(-c3nc(NC4CCN(S(=O)(=O)C5CCN(C(=O)C6CCN(c7cc8c(cc7F)C(=O)N(C7CCC(=O)NC7=O)C8=O)CC6)CC5)CC4)ncc3F)cc2n1C(C)C (centres unmarked) [Compound 74] |
| 1000 to 5000 | Cc1nc2c(F)cc(-c3nc(NC4CCN(S(=O)(=O)C5CCN(C6CC7(CCN(c8cc9c(cc8F)C(=O)N(C8CCC(=O)NC8=O)C9=O)CC7)C6)CC5)CC4)ncc3F)cc2n1C(C)C (centres unmarked) [Compound 75] |

| IC50 [nM] | Structure (SMILES) |
| --- | --- |
| > 10000 | C[C@@]1(O)CCC[C@H]1n1c(=O)ccc2cnc(Nc3ccc(S(=O)(=O)C4CCN(C5CC6(C5)CN(c5cc7c(cc5F)C(=O)N(C5CCC(=O)NC5=O)C7=O)C6)CC4)cc3)nc21 (some centres unmarked) [Compound 76] |
| 1000 to 5000 | C[C@@]1(O)CCC[C@H]1n1c(=O)ccc2cnc(NC3CCN(S(=O)(=O)C4CCN(C(=O)C5CC6(CCN(c7cc8c(cc7F)C(=O)N(C7CCC(=O)NC7=O)C8=O)CC6)C5)CC4)CC3)nc21 (some centres unmarked) [Compound 77] |
| 101 to 1000 | C[C@@]1(O)CCC[C@H]1n1c(=O)ccc2cnc(NC3CCN(S(=O)(=O)C4CCN(C(=O)C5CCC6(CC5)CCN(c5cc7c(cc5F)C(=O)N(C5CCC(=O)NC5=O)C7=O)CC6)CC4)CC3)nc21 (some centres unmarked) [Compound 78] |
| 101 to 1000 | C[C@@]1(O)CCC[C@H]1n1c(=O)ccc2cnc(NC3CCN(S(=O)(=O)C4CCN(C5CCC6(CCN(c7cc8c(cc7F)C(=O)N(C7CCC(=O)NC7=O)C8=O)CC6)C5)CC4)CC3)nc21 (some centres unmarked) [Compound 81] |
| 101 to 1000 | C[C@@]1(O)CCC[C@H]1n1c(=O)ccc2cnc(NC3CCN(S(=O)(=O)C4CCN(CC5CC6(CCN(c7cc8c(cc7F)C(=O)N(C7CCC(=O)NC7=O)C8=O)CC6)C5)CC4)CC3)nc21 (some centres unmarked) [Compound 82] |
| 101 to 1000 | C[C@@]1(O)CCC[C@H]1n1c(=O)ccc2cnc(NC3CCN(S(=O)(=O)C4CCN(C5CCC6(CCN(c7cc8c(cc7F)C(=O)N(C7CCC(=O)NC7=O)C8=O)C6)C5)CC4)CC3)nc21 (some centres unmarked) [Compound 84] |
| 1000 to 5000 | C[C@@]1(O)CCC[C@H]1n1c(=O)ccc2cnc(NC3CCN(S(=O)(=O)C4CCN(C5CC6(C5)CN(C(=O)C5CCN(c7cc8c(cc7F)C(=O)N(C7CCC(=O)NC7=O)C8=O)CC5)C6)CC4)CC3)nc21 (some centres unmarked) [Compound 85] |
| 101 to 1000 | C[C@@]1(O)CCC[C@H]1n1c(=O)ccc2cnc(NC3CCN(S(=O)(=O)C4CCN(C5CC6(CC(NC(=O)C7CCN(c8cc9c(cc8F)C(=O)N(C8CCC(=O)NC8=O)C9=O)CC7)C6)C5)CC4)CC3)nc21 (some centres unmarked) [Compound 86] |
| 101 to 1000 | C[C@@]1(O)CCC[C@H]1n1c(=O)ccc2cnc(NC3CCN(S(=O)(=O)C4CCN(C5CCC6(CC5)CCN(c5cc7c(cc5F)C(=O)N(C5CCC(=O)NC5=O)C7=O)CC6)CC4)CC3)nc21 (some centres unmarked) [Compound 89] |
| 101 to 1000 | C[C@@]1(O)CCC[C@H]1n1c(=O)ccc2cnc(NC3CCN(S(=O)(=O)C4CCN(CC5CCC6(CC5)CCN(c5cc7c(cc5F)C(=O)N(C5CCC(=O)NC5=O)C7=O)CC6)CC4)CC3)nc21 (some centres unmarked) [Compound 90] |
| 1000 to 5000 | C[C@@]1(O)CCC[C@H]1n1c(=O)ccc2cnc(NC3CCN(S(=O)(=O)NCCOCc4cn(CCOCCOCCNc5cccc6c5C(=O)N(C5CCC(=O)NC5=O)C6=O)nn4)CC3)nc21 (some centres unmarked) [Compound 91] |
| > 10000 | C[C@@]1(O)CCC[C@H]1n1c(=O)ccc2cnc(NC3CCN(S(=O)(=O)CCCCCCCCCOc4cccc5c4C(=O)N(C4CCC(=O)NC4=O)C5=O)CC3)nc21 (some centres unmarked) [Compound 92] |
| 1000 to 5000 | C[C@@]1(O)CCC[C@H]1n1c(=O)ccc2cnc(NC3CCN(S(=O)(=O)C4CCN(CC5CCN(c6cc7c(cc6F)C(=O)N(C6CCC(=O)NC6=O)C7=O)CC5)CC4)CC3)nc21 (some centres unmarked) [Compound 93] |
| > 10000 | C[C@@]1(O)CCC[C@H]1n1c(=O)ccc2cnc(NC3CCN(S(=O)(=O)C4CCN(C5CC(C6CCN(c7cc8c(cc7F)C(=O)N(C7CCC(=O)NC7=O)C8=O)CC6)C5)CC4)CC3)nc21 (some centres unmarked) [Compound 96] |
| 101 to 1000 | Cc1nc2c(F)cc(-c3nc(NC4CCN(S(=O)(=O)C5CCN(CC6CCC7(CC6)CN(c6cc8c(cc6F)C(=O)N(C6CCC(=O)NC6=O)C8=O)C7)CC5)CC4)ncc3F)cc2n1C(C)C (centres unmarked) [Compound 97] |
| 101 to 1000 | Cc1nc2c(F)cc(-c3nc(NC4CCN(S(=O)(=O)C5CCN(CC6CC7(CCN(c8cc9c(cc8F)C(=O)N(C8CCC(=O)NC8=O)C9=O)CC7)C6)CC5)CC4)ncc3F)cc2n1C(C)C (centres unmarked) [Compound 98] |
